Assay results taken from patent publication US9623123B2, “Fluorescent conjugated polymers with a bodipy-based backbone and uses thereof” (Michigan Technological University, priority 2008, dated 2017).

Experiments:
[1] = UV-visible absorption and fluorescence spectra, fluorescence quantum yields in solution; assay type: physicochemical
Experimental: ^1H NMR and ^13C NMR spectra were taken on a 400 MHz Varian Unity Inova spectrophotometer instrument. ^1H and ^13C NMR spectra were recorded in CDCl3, chemical shifts (δ) are given in ppm relative to solvent peaks (1H: δ 7.26; 13C: δ 77.3) as internal standard. UV spectra were taken on a Hewlett Packard 8452A Diode Array UV-visible spectrophotometer. Fluorescence spectra were recorded on a Spex Fluorolog 1681 0.22 m steady-state fluorometer. Fluorescence quantum yields of BODIPY dyes and polymers were measured in methylene chloride and DMF, and calculated by using fluorescein excited at 490 nm in 0.1 N NaOH as the reference absolute quantum efficiency (φn=85%). Molecular weights of the polymers were determined by gel permeation chromatography (“GPC”) by using a Waters Associates Model 6000A liquid chromatograph. Three American Polymer Standards Corp. Ultrastyragel columns in series with porosity indices of 10^3, 10^4, and 10^5 Å were used and housed in an oven thermostated at 30° C. Mobile phase was HPLC grade THF which was filtered and degassed by vacuum filtration through a 0.5 μm fluoropore filter prior to use. The polymers were detected by a Waters Model 440 ultraviolet absorbance detector at a wavelength of 254 nm and a Waters Model 2410 refractive index detector. Molecular weights were measured relative to polystyrene standards. An Enraf Nonius CAD-4 X-Ray diffractometer was used in the crystal structure determination. The windows program WinGX was used as the interface for the solution and refinement of the model. The data were first reduced and corrected for absorption using the psi-scans, and then solved using the program SIR2004. The model was refined using SHELXL97.
(§1) ^1H NMR and ^13C NMR spectra were taken on a 400 MHz Varian Unity Inova spectrophotometer instrument. ^1H and ^13C NMR spectra were recorded in CDCl3, and chemical shifts (5) are given in ppm relative to solvent peaks (at 7.24 ppm for ^1H spectra and at 77.3 for ^13C spectra) as internal standard. UV spectra were taken on a Hewlett-Packard 8452A Diode Array UV-visible spectrophotometer. Fluorescence spectra were recorded on a Spex Fluorolog 1681 0.22 m steady-state fluorometer. Fluorescence quantum yields of BODIPY dyes and polymers were measured in methylene chloride and calculated by using fluorescein excited at 490 nm in 0.1 N NaOH as the reference (its quantum efficiency of 85%). Fluorescence lifetimes were measured on a GL-3300 Nitrogen Laser laserstrobe PTI instrument and analyzed using FeliX32 software.
^1H NMR and ^13C NMR spectra were taken on a 400 MHz Varian Unity Inova spectrophotometer instrument. ^1H and ^13C NMR spectra were recorded in CDCl3, chemical shifts (δ) are given in ppm relative to solvent peaks (^1H: δ 7.26; ^13C: δ 77.3) as internal standard. UV spectra were taken on a Hewlett Packard 8452A Diode Array UV-visible spectrophotometer. Fluorescence spectra were recorded on a Spex Fluorolog 1681 0.22 m steady-state fluorometer. Fluorescence quantum yields of BODIPY dyes and polymers were measured in methylene chloride and DMF, and calculated by using fluorescein excited at 490 nm in 0.1 N NaOH as the reference quantum efficiency (φn=85%).^30,31 Molecular weights of the polymers were determined by gel permeation chromatography (GPC) by using a Waters Associates Model 6000A liquid chromatograph. Three American Polymer Standards Corp. Ultrastyragel columns in series with porosity indices of 10^3, 10^4, and 10^5 Å were used and housed in an oven thermostated at 30° C. Mobile phase was HPLC grade THF which was filtered and degassed by vacuum filtration through a 0.5 μm fluoropore filter prior to use. The polymers were detected by a Waters Model 440 ultraviolet absorbance detector at a wavelength of 254 nm and a Waters Model 2410 refractive index detector. Molecular weights were measured relative to polystyrene standards. […]

[2] = Fluorescence lifetime measurement; assay type: physicochemical
Experimental: as §1
^1H NMR and ^13C NMR spectra were taken on a 400 MHz Varian Unity Inova spectrophotometer instrument. ^1H and ^13C NMR spectra were recorded in CDCl3, and chemical shifts (δ) are given in ppm relative to solvent peaks (^1H, δ 7.26; ^13C, δ 77.3) as internal standard. UV spectra were taken on a Hewlett-Packard 8452A Diode Array UV-visible spectrophotometer. Fluorescence spectra were recorded on a Spex Fluorolog 1681 0.22 m steady-state fluorometer. Fluorescence quantum yields of BODIPY dyes and polymers were measured in methylene chloride and calculated by using fluorescein exCIted at 490 nm in 0.1 N NaOH as the reference (quantum effiCIency, cPn=85%). Fluorescence lifetimes were measured on a 010-3300 Nitrogen Laser laserstrobe PTI instrument and analyzed using FeliX32 software. Molecular weights of the polymers were determined by gel permeation chromatography (OPC) by using a Waters AssoCIates model 6000A liquid chromatograph. Three American Polymer Standards Corp. ultrastyragel columns in series with porosity indices of 103, 104, and 105 A were used and housed in an oven thermostatted at 30° C. The mobile phase was HPLC grade THF which was filtered and degassed by vacuum filtration through a 0.5, urn fluoropore filter prior to use. The polymers were detected by a Waters Model 440 ultraviolet absorbance detector at a wavelength of 254 nm and a Waters Model 2410 refractive index detector. Molecular weights were determined relative to polystyrene standards.

[3] = methylene chloride solution (Table 9, Example 13)
[4] = methylene chloride solution (Table 10, Example 14)
[5] = methylene chloride solution, fluorescein standard (Table 10, Example 14)
[6] = methylene chloride solution, fluorescein standard (Table 9, Example 13)
[7] = CH2Cl2 solution (Table 2, Example 2)
[8] = CH2Cl2 solution, fluorescein reference (Example 2)
[9] = DMF solution (Table 3, Example 2)
[10] = DMF solution, fluorescein reference (Example 2)

| Structure (SMILES) | Absorption maxima [1, 3] [nm] | Emission maxima [1, 3] [nm] | Stokes shift [1, 3] [nm] | Absorption maxima [1, 4] [nm] | Emission maxima [1, 4] [nm] | Quantum yield [1, 5] [%] | Fluorescence lifetime [2, 3] [ns] | Fluorescence lifetime [2, 4] [ns] | Quantum yield [1, 6] [%] | Absorption maxima [1, 7] [nm] | Emission maxima [1, 7] [nm] | Quantum yield [1, 8] [%] | Absorption maxima [1, 9] [nm] | Emission maxima [1, 9] [nm] | Quantum yield [1, 10] [%] |
| --- | --- | --- | --- | --- | --- | --- | --- | --- | --- | --- | --- | --- | --- | --- | --- |
| CCCCCCCCCCCCOc1ccc(C2=C3C(C)=CC(C)=[N+]3[B-](F)(F)n3c(C)cc(C)c32)cc1 [Compound 3a] | 501 | 509 | 8 | 501 | 510 | 76 | 3.9 | 3.8 |  |  |  |  |  |  |  |
| CCCCCCCCCCCCOc1ccc(C2=C3C(C)=CC(C)=[N+]3[B-](F)(F)n3c(C)cc(C)c32)cc1OCCCCCCCCCCCC [Compound 3b] | 502 | 510 | 8 | 502 | 511 | 81 | 4.1 | 4.1 |  |  |  |  |  |  |  |
| CCCCCCCCCCCCOc1cc(C2=C3C(C)=CC(C)=[N+]3[B-](F)(F)n3c(C)cc(C)c32)cc(OCCCCCCCCCCCC)c1OCCCCCCCCCCCC [Compound 3c] | 503 | 511 | 9 |  |  |  | 3.2 |  |  |  |  |  |  |  |  |
| CCCCCCCCCCCCOc1ccc(C2=C3C(C)=C(I)C(C)=[N+]3[B-](F)(F)n3c(C)c(I)c(C)c32)cc1 [Compound 4a] | 533 | 548 | 15 | 533 | 548 | 5.8 | 0.21 | 0.13 | 2.3 |  |  |  |  |  |  |
| CCCCCCCCCCCCOc1ccc(C2=C3C(C)=C(I)C(C)=[N+]3[B-](F)(F)n3c(C)c(I)c(C)c32)cc1OCCCCCCCCCCCC [Compound 4b] | 534 | 549 | 15 | 534 | 549 | 5.8 | 0.15 | 0.08 | 2.7 |  |  |  |  |  |  |
| CCCCCCCCCCCCOc1cc(C2=C3C(C)=C(I)C(C)=[N+]3[B-](F)(F)n3c(C)c(I)c(C)c32)cc(OCCCCCCCCCCCC)c1OCCCCCCCCCCCC [Compound 4c] | 535 | 550 | 15 |  |  |  | 0.19 |  | 2.3 |  |  |  |  |  |  |
| CCCCCCCCCCCCOc1ccc(C2=C3C(C)=C(C#C[Si](C)(C)C)C(C)=[N+]3[B-](F)(F)n3c(C)c(C#C[Si](C)(C)C)c(C)c32)cc1 [Compound 5a] | 554 | 569 | 15 | 553 | 569 | 71 | 4.4 | 4.5 |  |  |  |  |  |  |  |
| CCCCCCCCCCCCOc1ccc(C2=C3C(C)=C(C#C[Si](C)(C)C)C(C)=[N+]3[B-](F)(F)n3c(C)c(C#C[Si](C)(C)C)c(C)c32)cc1OCCCCCCCCCCCC [Compound 5b] | 555 |  | 15 | 554 | 570 | 79 | 4.6 | 5.2 |  |  |  |  |  |  |  |
| CCCCCCCCCCCCOc1cc(C2=C3C(C)=C(C#C[Si](C)(C)C)C(C)=[N+]3[B-](F)(F)n3c(C)c(C#C[Si](C)(C)C)c(C)c32)cc(OCCCCCCCCCCCC)c1OCCCCCCCCCCCC [Compound 5c] | 556 | 570 | 14 |  |  |  | 4.4 |  |  |  |  |  |  |  |  |
| COc1cc(C2=C3C(C)=CC(C)=[N+]3[B-](F)(F)n3c(C)cc(C)c32)cc(OC)c1OC [Compound 9, 4,4-Difluoro-8-(3,4,5-trimethoxyphenyl)-1,3,5,7-tetramethyl-4-bora-3a,4a-diaza-s-indacene] |  |  |  |  |  |  |  |  |  | 502 | 511 | 71.5 | 501 | 511 | 55.3 |
| COc1cc(C2=C3C(C)=C(I)C(C)=[N+]3[B-](F)(F)n3c(C)c(I)c(C)c32)cc(OC)c1OC [Compound 10, 4,4-Difluoro-8-(3,4,5-trimethoxyphenyl)-2,6-diiodo-1,3,5,7-tetramethyl-4-bora-3a,4a-diaza-s-indacene] |  |  |  |  |  |  |  |  |  | 535 | 549 | 7.52 | 534 | 551 | 3.4 |
| COc1ccc(C2=C3C(C)=CC(C)=[N+]3[B-](F)(F)n3c(C)cc(C)c32)cc1 [Compound 14, 4,4-Difluoro-8-(4-methoxyphenyl)-1,3,5,7-tetramethyl-4-bora-3a,4a-diaza-s-indacene] |  |  |  |  |  |  |  |  |  | 500 | 510 | 80.1 | 500 | 510 | 71.6 |
| COc1ccc(C2=C3C(C)=C(I)C(C)=[N+]3[B-](F)(F)n3c(C)c(I)c(C)c32)cc1 [Compound 15, 4,4-Difluoro-8-(4-methoxyphenyl)-2,6-diiodo-1,3,5,7-tetramethyl-4-bora-3a, 4a-diaza-s-indacene] |  |  |  |  |  |  |  |  |  | 533 | 548 | 5.72 | 533 | 551 | 4.9 |
| CC1=CC(C)=[N+]2C1=C(c1c(C)cccc1C)c1c(C)cc(C)n1[B-]2(F)F [Compound 18, 4,4-Difluoro-8-(2,6-dimethylphenyl)-1,3,5,7-tetramethyl-4-bora-3a,4a-diaza-s-indacene] |  |  |  |  |  |  |  |  |  | 501 | 510 | 86.7 | 502 | 510 | 73.8 |
| CC1=C(I)C(C)=[N+]2C1=C(c1c(C)cccc1C)c1c(C)c(I)c(C)n1[B-]2(F)F [Compound 19, 4,4-Difluoro-8-(2,6-dimethylphenyl)-2,6-diiodo-1,3,5,7-tetramethyl-4-bora-3a,4a-diaza-s-indacene] |  |  |  |  |  |  |  |  |  | 535 | 549 | 8.64 | 536 | 552 | 4.4 |
